Tested on: HBV
Experiment: Therapeutic effect on HepG2-hNTCP 2B1 infected by HBV (drug from day 6 after infection)
Type: cell-based, hepatitis B virus
Settings: drug treatment from 6 days after HBV infection to day 12, Palovarotene at high concentrations (p<0.05), ETV 1 μM, vs blank group
Protocol: This experiment was carried out in a 24-well culture plate. […] About 1.5×10^5 HepG2-hNTCP 2B1 cells were plated in each well, and 500 μL of medium B was added to each well. After the cells adhered, medium A was used for replacement to perform the induction with Doxycycline during the whole experiment.
4 Days after the induction with Doxycycline, HBV infection was performed, and the amount of HBV in each well was 100 MOI. Before infection, HBV was diluted in medium C to obtain HBV solution, and the infection volume was 250 μL per well. During infection, the cell supernatant was first removed by suction, the HBV solution was added to the cells, and the cells were incubated for 24 hours, then the supernatant was collected as the sample of Day 0. Then the cells were washed three times with PBS, and fresh medium C was used for replacement. After that, the supernatant was collected every two days for detection, fresh medium C was used for replacement. On the 6th day, fresh drug-containing medium A was used for replacement to start drug treatment, then the supernatant was collected every two days for detection, and fresh drug-containing medium A was used for replacement, until the 12th day, all the supernatant and cells were collected for relevant detection. The detection items included HBsAg, HBeAg, HBV DNA, HBV cccDNA, and for the detection method, please refer to Example 1.

C=C1[C@H](CO)[C@@H](O)C[C@@H]1n1cnc2c(=O)[nH]c(N)nc21 [ETV, Entecavir]
no significant difference: HBeAg | level of HBV DNA | level of HBV cccDNA

Source: patent publication US12569468B2, “Use of palovarotene in treatment against HBV virus” (YANG SHENG TANG COMPANY, LTD., priority 2020, dated 2026)
